# Key:
# PKG = target: T1, PKG (Homo sapiens, UniProt Q13976); assay: IC50 of NOP46 for PKG; assay type: biochemical
# T1 sequence (Q13976 1-671): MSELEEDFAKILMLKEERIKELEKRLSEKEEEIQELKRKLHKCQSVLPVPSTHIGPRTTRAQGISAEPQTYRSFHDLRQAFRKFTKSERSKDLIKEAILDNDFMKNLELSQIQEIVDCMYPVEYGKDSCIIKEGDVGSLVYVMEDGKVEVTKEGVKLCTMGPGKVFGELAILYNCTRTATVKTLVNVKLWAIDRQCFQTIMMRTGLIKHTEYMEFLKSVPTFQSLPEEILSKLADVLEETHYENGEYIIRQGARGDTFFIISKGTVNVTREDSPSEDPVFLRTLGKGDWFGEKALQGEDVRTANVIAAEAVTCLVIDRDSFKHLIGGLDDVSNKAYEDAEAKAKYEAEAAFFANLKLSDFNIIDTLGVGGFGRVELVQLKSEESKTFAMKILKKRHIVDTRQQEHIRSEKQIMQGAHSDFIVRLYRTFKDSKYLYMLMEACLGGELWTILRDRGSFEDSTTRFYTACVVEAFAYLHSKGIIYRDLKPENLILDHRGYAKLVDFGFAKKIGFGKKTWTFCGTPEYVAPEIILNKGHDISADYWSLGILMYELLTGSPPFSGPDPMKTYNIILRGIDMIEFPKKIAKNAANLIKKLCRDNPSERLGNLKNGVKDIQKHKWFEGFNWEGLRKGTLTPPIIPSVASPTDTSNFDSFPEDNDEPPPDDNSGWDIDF
# Protein Kinase A (PKA) = Protein Kinase A (PKA) (Homo sapiens, UniProt P17612); assay: IC50 of NOP46 for Protein Kinase A; assay type: biochemical
# [1] = Distribution to dorsal root ganglion and CNS after injection; assay type: in vivo
# [2] = Stability in blood in vitro; assay type: in vitro ADME
# [3] = Clearance from circulation after intravenous injection; assay type: in vivo; details: following intravenous injection
# [4] = Microsome preparations (metabolism); assay type: in vitro ADME
# [5] = Tissue distribution studies; assay type: in vivo; details: initial levels
# PKG1alpha(h) = target: T2, PKG1alpha(h) (Homo sapiens, UniProt Q13976); assay: Kinase panel (287 kinases, optimal ATP): PKG1alpha(h); assay type: biochemical; details: assayed in 287 kinases at their optimal ATP concentrations
# T2 sequence (Q13976 1-671): T1 sequence (Q13976 1-671)
# Protocol: Its kinase inhibiting activity was assayed in 287 kinases at their optimal ATP concentrations. Members of all the kinome families were represented.
# models of chronic pain = assay: Rat models of chronic pain (mechanical allodynia, thermal hyperalgesia); assay type: in vivo; details: injected into rats, FIG. 6
# From the text: (§1) Evaluation of neuroma pain was made possible with the advent of a novel protocol in rats whereby the end of a transected tibial nerve is transposed and then anchored just beneath the skin of the ankle. This allows the allodynia from the neuroma to be evaluated by systematically applying pressure to the overlying skin and observing whether the rat raises the leg.
# neuroma pain = assay: Tibial neuroma transposition model of neuroma pain in rats; assay type: in vivo; details: transected tibial nerve transposed beneath ankle skin
# From the text: as §1
smiles,measurement,setting,value
"CCCOc1ccc(OC)c(F)c1C(=O)c1ccc(C(=O)N[C@@H]2CNC[C@H]2NC(=O)c2ccc3[nH]ncc3c2)cc1 [NOP46, N-((3R,4R)-4-(4-(2-fluoro-3-methoxy-6-propoxybenzoyl)benzamido)pyrrolidin-3-yl)-1H-indazole-5-carboxamide]",IC50,PKG,7.5 nM
same,Kinetic analysis: mode of inhibition,PKG; with respect to the ATP site,non-competitive inhibitor of the ATP site
same,IC50,Protein Kinase A (PKA),2000 nM
same,Entry into the central nervous system,[1],does not enter the central nervous system
same,Time to reach the DRG,[1],≤ 30 min
same,Stability within the ganglion,[1]; dorsal root ganglion,at least 24 h
same,Stability in blood,[2],stable in blood in vitro
same,Clearance from the circulation,[3],rapidly cleared from the circulation
same,Metabolic degradation pathway,[4],degraded by carbonyl reduction and depropylation
same,Tissue level in the liver,[5],high initial levels of NOP46 in the liver
same,Selectivity of kinase inhibition,PKG1alpha(h),selectively inhibits activated PKG1alpha
same,Mechanical allodynia,models of chronic pain,alleviated mechanical allodynia
same,Thermal hyperalgesia,models of chronic pain,alleviated
same,Neuroma pain,neuroma pain,alleviates neuroma pain
